Measured values from PubChem BioAssay (NCI).
“And” between values parts separate entries of the source, which are not always exact repeats. Equal values may be shown once.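 Where inhibition never reached the appropriate level, the endpoint shown equals the highest concentration tested. Otherwise, values were interpolated linearly from a five-concentration, 48-hour dose response in 96-well plates. GI50 is the concentration that inhibits growth by half. The concentration for full growth arrest is given as TGI.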

Assays:
Test in all cases: inhibition of tumour cell growth, NCI panel, 48 h
MDA-MB-435 = test system: MDA-MB-435
T-47D breast = test system: T-47D breast
MDA-MB-231 breast = test system: MDA-MB-231 breast
PC-3 prostate = test system: PC-3 prostate
DU-145 prostate = test system: DU-145 prostate
MCF7 breast = test system: MCF7 breast

Compound	TGI (MDA-MB-435)	TGI (T-47D breast) [µM]	TGI (MDA-MB-231 breast) [µM]	TGI (PC-3 prostate) [µM]	TGI (DU-145 prostate) [µM]	TGI (MCF7 breast) [µM]	GI50 (T-47D breast) [µM]	GI50 (MDA-MB-231 breast)	GI50 (PC-3 prostate)	GI50 (DU-145 prostate)	GI50 (MCF7 breast)	GI50 (MDA-MB-435)
CCOC1C=CCCO1 (stereo unspecified)	> 100 µM	> 100	> 100	> 100	> 100	> 100						
COc1ccc(/C=C/C(=O)c2cc3c(N)c(C(=O)Nc4ccccc4)sc3nc2C)cc1		> 50	> 31.8	> 50	> 22.9	> 50	0.33	0.377 µM	0.184 µM	0.19 µM	0.128 µM	
COc1cc(/C=C/C(=O)c2c(C)n([O-])c3ccc(Cl)cc3[n+]2=O)cc(OC)c1OC	> 100 µM	> 100	96.6	> 100	> 100	> 100	40.5	14.7 µM	27.5 µM	21.7 µM	57 µM	> 100 µM
CC(C)C[C@@H]1NC(=O)[C@@H]2CCCN2C(=O)[C@@H]2CCCN2C(=O)[C@H](CC(C)C)NC(=O)[C@H](CO)NC(=O)[C@H](CCCCN)NC(=O)[C@H]([C@H](C)O)NC(=O)[C@@H]2CCCC[C@@H](NC1=O)C(=O)N[C@@H](Cc1ccccc1)C(=O)N1CCC[C@H]1C(=O)N[C@@H](CC(=O)O)C(=O)NCC(=O)N[C@@H](CCCN=C(N)N)C(=O)N2	> 50 µM	> 50	> 50	> 50	> 50	> 50	> 50	> 50 µM	> 50 µM	> 50 µM	> 50 µM	> 50 µM
O=C(/C=C/c1ccc(C(F)(F)F)cc1)c1ccc(Nc2nc(NCCO)nc(N3CCOCC3)n2)cc1	5.35 µM	7.77	9.74	7.83	4.58	3.95	2.28	2.69 µM	2.24 µM	2.19 µM	1.25 µM	2.23 µM
C[C@@H]1C[C@@]2(O[C@@H]2C)C(=O)O[C@@H]2CCN3CC=C(COC(=O)[C@]1(C)O)[C@H]23	> 100 µM	> 100	> 100	> 100	> 100	> 100						
CC1/C(=N/Nc2ccc([N+](=O)[O-])cc2)CC2C3(C)CCC2(C(C)C(=O)O)C(=O)C13 (stereo unspecified)	> 100 µM	> 100	> 100	> 100	> 100	> 100	4.14	4.06 µM	34.4 µM	> 100 µM	7.17 µM	27.4 µM
Oc1c(N=Nc2ccccc2)c2ccccc2c2ccc3ccccc3c12	> 100 µM	> 100	> 100	> 100	> 100	> 100						
CCCN(CCC)C(=O)[C@H](CC)[C@@H]1CC[C@@H](C)[C@@H]([C@H](C)[C@@H](O)[C@@H](C)C(=O)[C@H](CC)C2O[C@]3(C=C[C@@H](O)[C@]4(CC[C@@](C)([C@H]5CC[C@](O)(CC)[C@H](C)O5)O4)O3)[C@H](C)C[C@@H]2C)O1 (stereo partly specified)	9.71 µM	14.5	3.28	11	4.21	7.76	3.08	1.62 µM	2.05 µM	2.05 µM	2.46 µM	2.96 µM
COc1cc([N+](=O)[O-])c(OC)cc1-c1nc2sc(Cl)cn2c1/C=N/NC(=N)N/N=C/c1c(-c2cc(OC)c([N+](=O)[O-])cc2OC)nc2sc(Cl)cn12		5.07	3.4	3.47	4.06		1.98	1.59 µM	1.97 µM	1.91 µM		
COC(=O)c1cc2oc(/C=C3\SC(=S)N(NC(C)=O)C3=O)cc2n1Cc1ccccc1	4.02 µM		17.4	9.82	9.85	> 50		9.02 µM	1.61 µM	1.7 µM	2.53 µM	1.1 µM
Clc1nc(Cl)c(Cc2ccccc2)c(Cl)n1	19 µM	42.4	14.9	44.5	28.7	21.4						
O=C(N/N=C\c1ccc(N(CCCl)CCCl)cc1Cl)c1cccnc1	46.1 µM	20	62.3	> 100	59.6	> 82.6	2.8	14.1 µM	19.2 µM	16.2 µM	1.39 µM	17.1 µM
O=C(NCP(=O)(O)O)c1cccnc1	> 100 µM	> 100	> 100	> 100	> 100	> 100						
OC(CNC1CCCC1)Cn1c2ccccc2c2ccccc21 (stereo unspecified)	> 100 µM	> 100	> 100	> 100	> 100	> 100	33.9	27.7 µM	> 100 µM	82.3 µM	> 100 µM	> 100 µM
CCOC(=O)C#Cc1c(CC(=O)OCC)nnn1[C@H]1O[C@@H](CO)[C@@H]2OC(C)(C)O[C@@H]21	18.3 µM	7.55	16.1	31	21.8	14.9	2.78	4.62 µM	16.1 µM	10.2 µM	3.15 µM	5.4 µM
Oc1ccc(N=Nc2ccc(N=Nc3ccccc3)cc2)cc1	14.7 µM	6.73	7.09	16.8	12.2	6.86	1.61	2.5 µM	2.83 µM	2.09 µM	1.5 µM	2.96 µM
CC1SC(=O)SC1C (stereo unspecified)	> 100 µM	> 100	> 100	> 100		> 100						
COC(=O)[C@@H](C)C[C@H](Cc1ccccc1)NC(=O)c1csc([C@@H](C[C@H](C(C)C)N(C)C(=O)C2(NC(=O)[C@H]3CCCCN3C)CC2)OC(C)=O)n1	0.00273 µM and < 0.00333 µM	> 33.3	4.36	> 33.3		> 33.3	0.00333	0.00681 µM and 0.00333 µM	0.00523 µM and 0.00333 µM	0.00348 µM and 0.00333 µM	0.000612 µM and 0.00333 µM	0.000405 µM and < 0.00333 µM
C=C1CC[C@@H]2[C@](C)(COC(C)=O)[C@H](OC(C)=O)CC[C@@]2(C)[C@@H]1C/C=C1/C(=O)OC[C@H]1OC(C)=O	10.1 µM	13.8	27.1	19.9	14.7	6.79	2.86	12.5 µM	6.07 µM	4.47 µM	1.83 µM	2.63 µM
OCCNCCNc1c2ccccc2nc2oc3ccccc3c12	29.3 µM	38.4	37.5	34.7	23.5	29.2	11.7	10.3 µM	9.73 µM	10.1 µM	6.01 µM	11.5 µM
